Where two headings read alike, the source gives them in different places.
What was measured:
Experiment in all cases: biochemical
Design in all cases: DiscoveRx KINOMEscan active site-directed competition binding; percent of control kinase bound to immobilised ligand
[1] = target: PIK3CA(E545A) (Homo sapiens, UniProt P42336, E545A)
[2] = target: PIK3CA(Q546K) (Homo sapiens, UniProt P42336, Q546K)
[3] = target: INSRR (Homo sapiens, UniProt P14616)
[4] = target: T1, NEK5 (Homo sapiens, UniProt Q6P3R8)
T1 sequence (Q6P3R8 1-708): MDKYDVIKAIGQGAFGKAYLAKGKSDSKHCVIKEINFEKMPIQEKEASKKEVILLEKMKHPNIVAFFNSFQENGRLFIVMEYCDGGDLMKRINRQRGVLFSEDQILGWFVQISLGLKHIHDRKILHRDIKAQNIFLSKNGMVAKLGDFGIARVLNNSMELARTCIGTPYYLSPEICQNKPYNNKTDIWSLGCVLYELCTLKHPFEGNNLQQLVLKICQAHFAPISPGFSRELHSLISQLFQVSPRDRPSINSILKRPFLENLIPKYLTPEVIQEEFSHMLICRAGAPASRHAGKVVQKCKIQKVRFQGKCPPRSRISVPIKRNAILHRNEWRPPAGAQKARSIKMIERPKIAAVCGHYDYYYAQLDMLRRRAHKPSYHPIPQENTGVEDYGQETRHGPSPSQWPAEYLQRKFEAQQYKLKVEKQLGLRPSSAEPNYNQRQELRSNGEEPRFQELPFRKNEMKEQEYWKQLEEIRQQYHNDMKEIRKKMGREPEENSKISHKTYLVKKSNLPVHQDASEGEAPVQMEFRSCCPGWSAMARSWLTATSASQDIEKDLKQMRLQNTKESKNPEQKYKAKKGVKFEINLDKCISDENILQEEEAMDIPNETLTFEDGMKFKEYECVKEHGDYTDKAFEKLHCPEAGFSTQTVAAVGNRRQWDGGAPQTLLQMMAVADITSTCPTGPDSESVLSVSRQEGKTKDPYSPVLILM

[5] = target: T2, ITK (Homo sapiens, UniProt Q08881)
T2 sequence (Q08881 1-620): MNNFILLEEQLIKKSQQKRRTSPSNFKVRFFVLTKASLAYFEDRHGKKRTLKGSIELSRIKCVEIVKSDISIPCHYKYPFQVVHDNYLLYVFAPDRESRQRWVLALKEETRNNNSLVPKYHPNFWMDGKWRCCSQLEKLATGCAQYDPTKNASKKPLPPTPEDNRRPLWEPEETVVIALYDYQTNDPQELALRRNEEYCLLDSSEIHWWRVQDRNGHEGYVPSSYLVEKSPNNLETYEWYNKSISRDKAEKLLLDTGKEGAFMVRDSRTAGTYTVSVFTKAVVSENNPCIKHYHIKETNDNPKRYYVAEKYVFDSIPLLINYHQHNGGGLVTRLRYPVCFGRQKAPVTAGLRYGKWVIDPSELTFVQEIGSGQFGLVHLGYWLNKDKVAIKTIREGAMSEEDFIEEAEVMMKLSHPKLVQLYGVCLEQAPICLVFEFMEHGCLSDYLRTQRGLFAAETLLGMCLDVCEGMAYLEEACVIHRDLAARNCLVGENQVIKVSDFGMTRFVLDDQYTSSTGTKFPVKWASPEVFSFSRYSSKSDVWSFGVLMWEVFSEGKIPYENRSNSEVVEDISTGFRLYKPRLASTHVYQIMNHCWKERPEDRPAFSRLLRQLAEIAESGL

[6] = target: RIOK2 (Homo sapiens, UniProt Q9BVS4)
[7] = target: MET (Homo sapiens, UniProt P08581)
[8] = target: T3, NEK2 (Homo sapiens, UniProt P51955)
T3 sequence (P51955 1-445): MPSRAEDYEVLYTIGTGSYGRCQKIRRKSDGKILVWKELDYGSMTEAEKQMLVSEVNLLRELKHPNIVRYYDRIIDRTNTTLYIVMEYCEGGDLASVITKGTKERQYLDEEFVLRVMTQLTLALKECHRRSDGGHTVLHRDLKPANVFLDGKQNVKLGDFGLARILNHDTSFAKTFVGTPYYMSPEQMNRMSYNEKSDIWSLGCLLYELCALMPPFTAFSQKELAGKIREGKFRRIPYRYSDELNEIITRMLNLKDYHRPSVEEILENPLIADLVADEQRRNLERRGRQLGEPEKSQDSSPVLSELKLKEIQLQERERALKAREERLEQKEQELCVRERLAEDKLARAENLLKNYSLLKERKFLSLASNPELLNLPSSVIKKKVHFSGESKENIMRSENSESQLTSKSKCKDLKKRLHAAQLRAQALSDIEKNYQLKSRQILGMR

[9] = target: WNK1 (Homo sapiens, UniProt Q9H4A3)
[10] = target: T4, ABL1-nonphosphorylated (Homo sapiens, UniProt P00519)
T4 construct: nonphosphorylated

[11] = target: T5, ERK3 (Homo sapiens, UniProt Q16659)
T5 construct: gene MAPK6

[12] = target: NEK4 (Homo sapiens, UniProt P51957)
[13] = read-out: Talazoparib (BMN 673) / %Ctrl @ 10000nM
[14] = read-out: Olaparib / %Ctrl @ 10000nM
[15] = read-out: Rucaparib / %Ctrl @ 10000nM, binding competition, % of control
[16] = read-out: Niraparib (MK-4827) / %Ctrl @ 10000nM

T5 sequence (Q16659 whole entry): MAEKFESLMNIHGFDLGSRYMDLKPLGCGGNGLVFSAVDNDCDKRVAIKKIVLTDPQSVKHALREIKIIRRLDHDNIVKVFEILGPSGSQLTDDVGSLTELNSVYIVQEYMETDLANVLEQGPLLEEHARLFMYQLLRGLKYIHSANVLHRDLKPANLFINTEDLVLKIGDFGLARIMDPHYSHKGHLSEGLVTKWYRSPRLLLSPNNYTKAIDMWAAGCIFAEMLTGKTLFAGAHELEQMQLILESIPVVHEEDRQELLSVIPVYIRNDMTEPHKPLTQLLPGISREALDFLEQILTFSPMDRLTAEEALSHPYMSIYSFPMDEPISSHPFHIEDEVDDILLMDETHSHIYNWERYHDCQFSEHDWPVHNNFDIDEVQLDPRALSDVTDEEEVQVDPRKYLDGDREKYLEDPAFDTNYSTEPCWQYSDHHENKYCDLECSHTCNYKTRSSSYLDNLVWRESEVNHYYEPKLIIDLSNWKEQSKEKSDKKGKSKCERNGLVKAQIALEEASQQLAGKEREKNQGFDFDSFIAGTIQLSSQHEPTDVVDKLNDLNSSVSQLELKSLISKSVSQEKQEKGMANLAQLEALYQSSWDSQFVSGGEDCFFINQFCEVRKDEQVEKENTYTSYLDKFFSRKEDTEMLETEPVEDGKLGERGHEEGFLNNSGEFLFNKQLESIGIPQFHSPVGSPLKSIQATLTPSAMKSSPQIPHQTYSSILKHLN
Chain of MET (P08581 whole entry): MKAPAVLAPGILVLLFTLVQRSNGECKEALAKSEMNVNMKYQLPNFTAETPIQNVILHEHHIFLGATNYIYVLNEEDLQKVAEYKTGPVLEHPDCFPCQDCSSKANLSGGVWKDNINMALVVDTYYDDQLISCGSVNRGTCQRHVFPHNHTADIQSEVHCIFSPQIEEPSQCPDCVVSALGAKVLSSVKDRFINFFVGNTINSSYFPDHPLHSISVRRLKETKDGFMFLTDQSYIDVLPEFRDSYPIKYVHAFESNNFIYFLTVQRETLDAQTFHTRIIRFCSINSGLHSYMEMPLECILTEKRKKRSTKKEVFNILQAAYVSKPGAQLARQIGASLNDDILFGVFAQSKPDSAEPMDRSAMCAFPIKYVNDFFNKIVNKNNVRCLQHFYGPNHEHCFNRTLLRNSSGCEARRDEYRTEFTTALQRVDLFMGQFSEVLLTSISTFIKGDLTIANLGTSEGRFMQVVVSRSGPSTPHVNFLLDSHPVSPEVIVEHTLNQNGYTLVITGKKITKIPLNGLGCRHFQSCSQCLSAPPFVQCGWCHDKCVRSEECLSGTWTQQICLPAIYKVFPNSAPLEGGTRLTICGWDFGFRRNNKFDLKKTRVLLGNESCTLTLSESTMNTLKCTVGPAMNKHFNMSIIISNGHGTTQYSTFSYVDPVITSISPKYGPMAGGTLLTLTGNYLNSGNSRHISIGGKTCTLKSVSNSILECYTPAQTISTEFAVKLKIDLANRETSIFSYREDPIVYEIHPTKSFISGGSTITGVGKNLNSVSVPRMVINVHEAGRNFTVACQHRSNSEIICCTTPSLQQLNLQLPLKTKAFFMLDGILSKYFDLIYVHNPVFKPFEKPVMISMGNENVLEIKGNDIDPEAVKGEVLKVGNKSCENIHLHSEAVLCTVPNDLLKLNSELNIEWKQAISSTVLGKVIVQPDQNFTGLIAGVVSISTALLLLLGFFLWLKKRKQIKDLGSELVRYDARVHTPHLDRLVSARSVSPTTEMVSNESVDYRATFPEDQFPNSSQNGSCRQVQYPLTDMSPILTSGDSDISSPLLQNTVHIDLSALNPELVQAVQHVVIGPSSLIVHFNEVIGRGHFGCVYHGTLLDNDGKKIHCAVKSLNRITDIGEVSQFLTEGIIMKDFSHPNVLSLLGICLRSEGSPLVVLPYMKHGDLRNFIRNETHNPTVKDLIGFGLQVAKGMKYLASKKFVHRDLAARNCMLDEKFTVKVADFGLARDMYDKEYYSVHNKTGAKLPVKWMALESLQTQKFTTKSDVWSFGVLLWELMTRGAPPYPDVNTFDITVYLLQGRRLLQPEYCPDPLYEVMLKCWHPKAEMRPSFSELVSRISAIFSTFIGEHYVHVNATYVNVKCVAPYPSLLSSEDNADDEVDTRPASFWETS
Chain of PIK3CA(Q546K) (P42336 whole entry Q546K): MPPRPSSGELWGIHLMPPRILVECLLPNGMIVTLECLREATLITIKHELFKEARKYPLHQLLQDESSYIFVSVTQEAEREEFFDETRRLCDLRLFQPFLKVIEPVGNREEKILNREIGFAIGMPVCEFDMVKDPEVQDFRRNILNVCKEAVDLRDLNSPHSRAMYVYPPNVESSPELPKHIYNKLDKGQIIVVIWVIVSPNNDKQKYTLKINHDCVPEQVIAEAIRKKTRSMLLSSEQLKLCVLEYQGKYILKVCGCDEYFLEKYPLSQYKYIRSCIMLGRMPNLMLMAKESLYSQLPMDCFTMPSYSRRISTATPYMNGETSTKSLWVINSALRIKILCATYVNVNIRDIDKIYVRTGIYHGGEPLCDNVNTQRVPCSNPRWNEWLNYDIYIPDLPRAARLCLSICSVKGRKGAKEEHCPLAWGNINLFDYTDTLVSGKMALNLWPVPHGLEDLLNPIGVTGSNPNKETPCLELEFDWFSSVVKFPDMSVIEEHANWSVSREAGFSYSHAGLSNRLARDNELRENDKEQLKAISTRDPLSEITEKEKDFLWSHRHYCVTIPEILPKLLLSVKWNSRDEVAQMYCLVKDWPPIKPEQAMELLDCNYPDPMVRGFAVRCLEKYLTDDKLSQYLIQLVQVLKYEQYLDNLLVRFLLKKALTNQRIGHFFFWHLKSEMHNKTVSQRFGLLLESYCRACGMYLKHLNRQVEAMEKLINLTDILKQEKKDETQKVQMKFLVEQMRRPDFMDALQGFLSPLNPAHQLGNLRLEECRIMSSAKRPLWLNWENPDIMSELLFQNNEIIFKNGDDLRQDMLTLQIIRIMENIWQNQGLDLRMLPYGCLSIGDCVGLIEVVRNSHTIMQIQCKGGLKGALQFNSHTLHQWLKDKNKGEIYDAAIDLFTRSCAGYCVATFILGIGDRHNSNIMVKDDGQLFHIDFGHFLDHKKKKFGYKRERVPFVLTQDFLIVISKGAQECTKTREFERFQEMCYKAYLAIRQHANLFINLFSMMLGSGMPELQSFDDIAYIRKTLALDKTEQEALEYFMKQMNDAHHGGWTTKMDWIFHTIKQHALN
T4 sequence (P00519 whole entry): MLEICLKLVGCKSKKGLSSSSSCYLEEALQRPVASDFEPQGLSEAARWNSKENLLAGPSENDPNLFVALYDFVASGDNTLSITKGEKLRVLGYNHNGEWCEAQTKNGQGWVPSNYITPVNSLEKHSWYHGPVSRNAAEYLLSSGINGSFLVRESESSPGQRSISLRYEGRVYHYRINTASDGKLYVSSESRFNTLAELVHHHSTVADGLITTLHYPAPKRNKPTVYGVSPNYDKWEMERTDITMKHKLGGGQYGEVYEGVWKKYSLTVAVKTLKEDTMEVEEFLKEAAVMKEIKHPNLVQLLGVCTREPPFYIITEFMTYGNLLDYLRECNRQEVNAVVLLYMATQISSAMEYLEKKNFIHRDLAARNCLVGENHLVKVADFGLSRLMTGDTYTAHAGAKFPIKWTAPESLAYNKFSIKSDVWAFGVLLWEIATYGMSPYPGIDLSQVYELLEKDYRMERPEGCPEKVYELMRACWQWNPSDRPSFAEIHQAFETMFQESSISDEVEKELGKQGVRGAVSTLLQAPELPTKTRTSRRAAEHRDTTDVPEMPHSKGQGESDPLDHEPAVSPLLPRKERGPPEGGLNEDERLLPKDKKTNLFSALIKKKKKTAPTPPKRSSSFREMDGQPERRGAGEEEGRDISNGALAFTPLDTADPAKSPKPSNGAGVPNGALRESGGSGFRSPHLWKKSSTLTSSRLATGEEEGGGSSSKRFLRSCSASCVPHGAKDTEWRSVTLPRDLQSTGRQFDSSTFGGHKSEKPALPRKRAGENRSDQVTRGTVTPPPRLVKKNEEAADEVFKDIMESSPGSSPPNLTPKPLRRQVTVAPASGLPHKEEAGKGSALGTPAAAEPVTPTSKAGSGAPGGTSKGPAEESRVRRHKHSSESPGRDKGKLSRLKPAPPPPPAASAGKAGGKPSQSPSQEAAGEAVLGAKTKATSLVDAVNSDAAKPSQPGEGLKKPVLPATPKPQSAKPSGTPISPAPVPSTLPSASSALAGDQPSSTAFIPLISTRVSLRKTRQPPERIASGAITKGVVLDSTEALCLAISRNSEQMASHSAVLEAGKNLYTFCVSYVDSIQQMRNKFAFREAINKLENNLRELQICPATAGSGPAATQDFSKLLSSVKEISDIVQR
Chain of RIOK2 (Q9BVS4 whole entry): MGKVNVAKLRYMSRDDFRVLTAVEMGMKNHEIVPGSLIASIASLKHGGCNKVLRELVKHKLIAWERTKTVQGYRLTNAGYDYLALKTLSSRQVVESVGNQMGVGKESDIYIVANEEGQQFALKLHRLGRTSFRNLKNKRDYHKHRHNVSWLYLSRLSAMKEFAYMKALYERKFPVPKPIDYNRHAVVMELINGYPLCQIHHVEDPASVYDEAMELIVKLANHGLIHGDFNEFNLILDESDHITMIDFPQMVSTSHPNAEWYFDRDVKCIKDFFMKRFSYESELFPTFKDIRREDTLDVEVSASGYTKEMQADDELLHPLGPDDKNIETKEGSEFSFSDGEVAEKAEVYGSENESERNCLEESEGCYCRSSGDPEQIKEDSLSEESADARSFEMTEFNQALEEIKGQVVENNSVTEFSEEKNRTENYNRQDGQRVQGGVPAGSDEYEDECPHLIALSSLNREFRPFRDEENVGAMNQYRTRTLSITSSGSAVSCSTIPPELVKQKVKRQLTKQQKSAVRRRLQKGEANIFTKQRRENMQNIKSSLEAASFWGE
Chain of PIK3CA(E545A) (P42336 whole entry E545A): as the sequence (P42336 whole entry Q546K) above, with E545A, K546Q counted along it

Cn1ncnc1[C@H]1c2n[nH]c(=O)c3cc(F)cc(c23)N[C@@H]1c1ccc(F)cc1 [Talazoparib]
percent of control binding at 10 µM [1, 13]: 73% | percent of control binding at 10 µM [2, 13]: 100% | percent of control binding at 10 µM [3, 13]: 100% | percent of control binding at 10 µM [4, 13]: 97% | percent of control binding at 10 µM [5, 13]: 84% | percent of control binding at 10 µM [6, 13]: 100% | percent of control binding at 10 µM [7, 13]: 99% | percent of control binding at 10 µM [8, 13]: 100% | percent of control binding at 10 µM [9, 13]: 100% | percent of control binding at 10 µM [10, 13]: 100% | percent of control binding at 10 µM [11, 13]: 100% | percent of control binding at 10 µM [12, 13]: 100%

O=C(c1cc(Cc2n[nH]c(=O)c3ccccc23)ccc1F)N1CCN(C(=O)C2CC2)CC1 [Olaparib]
percent of control binding at 10 µM [1, 14]: 90% | percent of control binding at 10 µM [2, 14]: 90% | percent of control binding at 10 µM [3, 14]: 100% | percent of control binding at 10 µM [4, 14]: 96% | percent of control binding at 10 µM [5, 14]: 100% | percent of control binding at 10 µM [6, 14]: 84% | percent of control binding at 10 µM [7, 14]: 91% | percent of control binding at 10 µM [8, 14]: 100% | percent of control binding at 10 µM [9, 14]: 76% | percent of control binding at 10 µM [10, 14]: 87% | percent of control binding at 10 µM [11, 14]: 95% | percent of control binding at 10 µM [12, 14]: 80%

CNCc1ccc(-c2[nH]c3cc(F)cc4c3c2CCNC4=O)cc1 [Rucaparib]
percent of control binding at 10 µM [1, 15]: 85% | percent of control binding at 10 µM [2, 15]: 93% | percent of control binding at 10 µM [3, 15]: 95% | percent of control binding at 10 µM [4, 15]: 87% | percent of control binding at 10 µM [5, 15]: 100% | percent of control binding at 10 µM [6, 15]: 69% | percent of control binding at 10 µM [7, 15]: 92% | percent of control binding at 10 µM [8, 15]: 87% | percent of control binding at 10 µM [9, 15]: 81% | percent of control binding at 10 µM [10, 15]: 82% | percent of control binding at 10 µM [11, 15]: 90% | percent of control binding at 10 µM [12, 15]: 82%

NC(=O)c1cccc2cn(-c3ccc([C@@H]4CCCNC4)cc3)nc12 [Niraparib]
percent of control binding at 10 µM [1, 16]: 98% | percent of control binding at 10 µM [2, 16]: 100% | percent of control binding at 10 µM [3, 16]: 92% | percent of control binding at 10 µM [4, 16]: 89% | percent of control binding at 10 µM [5, 16]: 91% | percent of control binding at 10 µM [6, 16]: 67% | percent of control binding at 10 µM [7, 16]: 92% | percent of control binding at 10 µM [8, 16]: 98% | percent of control binding at 10 µM [9, 16]: 100% | percent of control binding at 10 µM [10, 16]: 94% | percent of control binding at 10 µM [11, 16]: 81% | percent of control binding at 10 µM [12, 16]: 82%
